What was measured:
[1] = molecular target: Leucine-rich repeat serine/threonine-protein kinase 2 (Homo sapiens, UniProt Q5S007)
Description: Inhibition of GST-tagged human recombinant wild type LRRK2 using fluorescein- ERM as substrate after 1 hr by TR-FRET assay

in vivo [2] = conditions: rat, plasma, ip, 5 mg/kg
Description: Plasma concentration in rat at 5 mg/kg, ip after 1 hr

in vivo [3] = conditions: rat, po, 10 mg/kg
in vivo [4] = conditions: rat, po, 10 mg/kg; remark: listed apart in the source
in vivo [5] = conditions: rat, iv, 2 mg/kg
Description: Half life in rat at 2 mg/kg, iv

in vivo [6] = conditions: rat, cerebrospinal fluid, ip, 5 mg/kg
Description: Drug uptake in CSF in rat at 5 mg/kg, ip after 1 hr

in vivo [7] = conditions: rat, po, 10 mg/kg; remark: listed apart in the source
in vitro = conditions: rat, in vivo
Description: Intrinsic clearance in rat

in vivo [8] = conditions: rat, plasma, iv, 2 mg/kg
[9] = Protein binding in rat plasma; type: ADME, cell-free; conditions: read-out: PPB (converted)

Chain of Leucine-rich repeat serine/threonine-protein kinase 2 (Q5S007 whole entry): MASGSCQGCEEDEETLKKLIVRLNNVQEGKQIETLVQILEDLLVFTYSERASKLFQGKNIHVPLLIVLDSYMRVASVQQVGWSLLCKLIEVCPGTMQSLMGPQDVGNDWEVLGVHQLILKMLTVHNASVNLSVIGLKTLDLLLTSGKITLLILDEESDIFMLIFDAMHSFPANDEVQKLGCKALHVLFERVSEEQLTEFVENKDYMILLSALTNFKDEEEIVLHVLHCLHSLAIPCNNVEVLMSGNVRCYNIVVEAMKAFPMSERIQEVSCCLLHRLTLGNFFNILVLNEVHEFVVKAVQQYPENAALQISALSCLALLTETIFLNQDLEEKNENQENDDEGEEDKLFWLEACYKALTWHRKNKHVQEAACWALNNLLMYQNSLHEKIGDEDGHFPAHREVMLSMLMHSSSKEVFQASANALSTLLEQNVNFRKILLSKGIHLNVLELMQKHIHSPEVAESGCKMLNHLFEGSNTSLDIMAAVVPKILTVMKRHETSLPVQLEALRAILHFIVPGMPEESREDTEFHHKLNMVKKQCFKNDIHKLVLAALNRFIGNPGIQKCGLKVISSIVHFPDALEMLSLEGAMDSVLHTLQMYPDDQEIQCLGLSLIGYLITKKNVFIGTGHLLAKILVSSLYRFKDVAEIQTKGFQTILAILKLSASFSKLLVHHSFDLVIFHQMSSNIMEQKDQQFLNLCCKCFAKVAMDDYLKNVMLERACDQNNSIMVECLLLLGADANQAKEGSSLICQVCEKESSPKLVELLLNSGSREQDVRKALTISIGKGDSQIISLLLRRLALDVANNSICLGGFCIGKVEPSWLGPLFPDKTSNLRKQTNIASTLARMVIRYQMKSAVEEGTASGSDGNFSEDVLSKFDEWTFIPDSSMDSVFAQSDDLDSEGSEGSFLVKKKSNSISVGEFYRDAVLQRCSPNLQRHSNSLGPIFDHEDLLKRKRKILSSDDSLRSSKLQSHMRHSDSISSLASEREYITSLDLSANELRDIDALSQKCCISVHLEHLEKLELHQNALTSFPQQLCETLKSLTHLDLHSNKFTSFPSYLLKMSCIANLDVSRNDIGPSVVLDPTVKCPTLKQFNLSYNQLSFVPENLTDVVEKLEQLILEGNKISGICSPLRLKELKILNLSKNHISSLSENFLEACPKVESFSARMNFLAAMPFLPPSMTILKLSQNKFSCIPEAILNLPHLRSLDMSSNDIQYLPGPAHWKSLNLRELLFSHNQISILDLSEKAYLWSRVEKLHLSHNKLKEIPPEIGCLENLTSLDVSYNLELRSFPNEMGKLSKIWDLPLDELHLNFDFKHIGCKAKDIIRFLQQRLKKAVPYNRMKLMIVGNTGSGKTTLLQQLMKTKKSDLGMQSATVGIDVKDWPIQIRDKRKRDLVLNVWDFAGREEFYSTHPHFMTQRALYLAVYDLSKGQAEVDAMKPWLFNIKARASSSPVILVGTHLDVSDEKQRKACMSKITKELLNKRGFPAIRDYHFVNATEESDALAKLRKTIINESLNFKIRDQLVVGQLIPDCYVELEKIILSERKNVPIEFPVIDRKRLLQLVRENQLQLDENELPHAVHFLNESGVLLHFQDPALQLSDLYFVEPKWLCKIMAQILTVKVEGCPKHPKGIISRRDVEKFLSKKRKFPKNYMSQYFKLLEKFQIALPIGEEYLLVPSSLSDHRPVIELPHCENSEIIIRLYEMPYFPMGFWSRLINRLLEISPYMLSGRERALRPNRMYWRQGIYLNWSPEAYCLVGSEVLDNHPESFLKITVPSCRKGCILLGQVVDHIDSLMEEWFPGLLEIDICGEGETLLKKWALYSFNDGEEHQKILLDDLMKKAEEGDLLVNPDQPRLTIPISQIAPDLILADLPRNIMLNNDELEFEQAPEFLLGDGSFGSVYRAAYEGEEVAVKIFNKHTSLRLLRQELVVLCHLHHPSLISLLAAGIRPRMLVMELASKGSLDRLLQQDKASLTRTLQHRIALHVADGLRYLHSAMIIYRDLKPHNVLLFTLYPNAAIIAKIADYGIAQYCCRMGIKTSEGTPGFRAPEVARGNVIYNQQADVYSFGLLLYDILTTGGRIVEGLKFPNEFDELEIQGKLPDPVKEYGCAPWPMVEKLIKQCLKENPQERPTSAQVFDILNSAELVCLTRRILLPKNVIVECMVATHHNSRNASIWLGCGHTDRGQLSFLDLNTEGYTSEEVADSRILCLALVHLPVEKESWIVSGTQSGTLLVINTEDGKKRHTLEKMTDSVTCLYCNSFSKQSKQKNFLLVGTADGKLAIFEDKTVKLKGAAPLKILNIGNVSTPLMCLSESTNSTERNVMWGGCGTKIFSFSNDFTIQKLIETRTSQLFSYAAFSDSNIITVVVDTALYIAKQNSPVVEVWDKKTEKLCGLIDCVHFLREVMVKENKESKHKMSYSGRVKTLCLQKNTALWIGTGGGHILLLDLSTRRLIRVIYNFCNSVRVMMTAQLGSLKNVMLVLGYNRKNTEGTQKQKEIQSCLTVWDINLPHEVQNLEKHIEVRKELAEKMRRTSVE

| Structure (SMILES) | Ki [1] [nM] | also measured |
| --- | --- | --- |
| CSc1sc(-c2cc[nH]n2)c2c1C(=O)NC1(CCCC1)C2 | 411 | – |
| CCCSc1sc(-c2cc[nH]n2)c2c1C(=O)NC[C@@H]2C | 84 | concentration at 1 h (in vivo [2]): 24400 nM; AUC (in vivo [3]): 46.1 µM·h; bioavailability (in vivo [4]): 98%; half-life (in vivo [5]): 3.6 h; concentration at 1 h (in vivo [6]): 150 nM; Cmax (in vivo [7]): 16000 nM; CLint scaled (in vitro): 1200 mL/min/kg; clearance (in vivo [8]): 11.9 mL/min/kg |
| CSc1sc(-c2cc[nH]n2)c2c1C(=O)NCC2 | 3410 | concentration at 1 h (in vivo [2]): 28300 nM; AUC (in vivo [3]): 14 µM·h; bioavailability (in vivo [4]): 70%; half-life (in vivo [5]): 1.4 h; concentration at 1 h (in vivo [6]): 500 nM; Cmax (in vivo [7]): 4800 nM; CLint scaled (in vitro): 1300 mL/min/kg; clearance (in vivo [8]): 47.5 mL/min/kg |
| CSc1sc(-c2cc[nH]n2)c2c1C(=O)NC1(CCC1)C2 | 233 | – |
| CSc1sc(-c2cc[nH]n2)c2c1C(=O)NC1(CC1)C2 | > 10000 | – |
| CSc1sc(-c2ccn(C)n2)c2c1C(=O)CC(C)(C)C2 | 5580 | – |
| CCCSc1sc(-c2cc[nH]n2)c2c1C(=O)NC[C@@H]2CC | 68 | – |
| CC(C)Sc1sc(-c2cc[nH]n2)c2c1C(=O)NCC2 | 988 | – |
| CSc1sc(-c2cc[nH]n2)c2c1C(=O)CCC2 | 312 | concentration at 1 h (in vivo [2]): 2330 nM; AUC (in vivo [3]): 3.8 µM·h; bioavailability (in vivo [4]): 33%; half-life (in vivo [5]): 6.5 h; concentration at 1 h (in vivo [6]): 50 nM; Cmax (in vivo [7]): 1600 nM; CLint scaled (in vitro): 6500 mL/min/kg; clearance (in vivo [8]): 56 mL/min/kg |
| CC1(C)CC(=O)c2c(SCc3ccccc3)sc(-c3cc[nH]n3)c2C1 | > 10000 | – |
| CSc1sc(-c2cc[nH]n2)c2c1C(=O)NC(C1CCC1)C2 (racemic) | 1050 | – |
| CSc1sc(-c2cc[nH]n2)c2c1C(=O)NC[C@@H]2C | 319 | – |
| CC[C@H]1CNC(=O)c2c(SCC3CC3)sc(-c3cc[nH]n3)c21 | 58 | – |
| CSc1sc(-c2cc[nH]n2)c2c1C(=O)NC(C(F)(F)F)C2 (racemic) | 501 | – |
| CSc1sc(-c2cc[nH]n2)c2c1C(=O)N(c1ccccc1)CC2 | 4710 | – |
| O=C1NCCc2c(-c3cc[nH]n3)sc(SC3CCCCC3)c21 | 919 | – |
| CCCSc1sc(-c2cc[nH]n2)c2c1C(=O)NCC2 | 572 | – |
| CC1(C)CC(=O)c2c(OC3CCCC3)sc(-c3cc[nH]n3)c2C1 | 475 | – |
| CCSc1sc(-c2cc[nH]n2)c2c1C(=O)CC(C)(C)C2 | 156 | – |
| CSc1sc(-c2cc[nH]n2)c2c1C(=O)NC(Cc1ccccc1)C2 (racemic) | 928 | – |
| CCCc1sc(-c2cc[nH]n2)c2c1C(=O)CC(C)(C)C2 | 5290 | – |
| CSc1sc(-c2cc[nH]n2)c2c1C(=O)NC(c1cccc(F)c1)C2 (racemic) | 3290 | – |
| CC1(C)CC(=O)c2c(SCC3CC3)sc(-c3cc[nH]n3)c2C1 | 172 | – |
| CSc1sc(-c2cc[nH]n2)c2c1C(=O)CC(C)(C)C2 | 377 | – |

Continued, in another order:

| Ki [1] [nM] | Structure (SMILES) | also measured |
| --- | --- | --- |
| 589 | CCSc1sc(-c2cc[nH]n2)c2c1C(=O)NCC2 | – |
| 342 | CSc1sc(-c2cc[nH]n2)c2c1C(=O)NC[C@H]2Cc1ccccc1 | – |
| 603 | CSc1sc(-c2cc[nH]n2)c2c1C(=O)NC[C@H]2C | – |
| 295 | O=C1CCCc2c(-c3cc[nH]n3)sc(SC3CCCC3)c21 | – |
| 271 | CSc1sc(-c2cc[nH]n2)c2c1C(=O)NC(c1ccc(F)cc1)C2 (racemic) | – |
| 5570 | CSc1sc(-c2cc[nH]n2)c2c1C(=O)N(C)CC2 | – |
| 4460 | O=C1NCCc2c(-c3cc[nH]n3)sc(Sc3ccccc3)c21 | – |
| > 10000 | O=C1CCCc2c(-c3cc[nH]n3)sc(NC3CCCC3)c21 | – |
| 256 | CC(C)Sc1sc(-c2cc[nH]n2)c2c1C(=O)CC(C)(C)C2 | – |
| 1240 | CSc1sc(-c2cc[nH]n2)c2c1C(=O)NC(C)C2 (racemic) | – |
| 614 | O=C1NCCc2c(-c3cc[nH]n3)sc(SC3CC3)c21 | – |
| 83 | C[C@H]1CNC(=O)c2c(SCC3CC3)sc(-c3cc[nH]n3)c21 | – |
| 389 | CC1(C)CC(=O)c2c(SC3CCCC3)sc(-c3cc[nH]n3)c2C1 | concentration at 1 h (in vivo [2]): 970 nM; AUC (in vivo [3]): 0.01 µM·h; bioavailability (in vivo [4]): 0.2%; fraction unbound [9]: 0.007; half-life (in vivo [5]): 1.2 h; concentration at 1 h (in vivo [6]): 10 nM; Cmax (in vivo [7]): 120 nM; clearance (in vivo [8]): 95.5 mL/min/kg |
| 993 | Cc1nnc(Sc2sc(-c3cc[nH]n3)c3c2C(=O)CC(C)(C)C3)s1 | – |
| > 10000 | CSc1sc(-c2cc[nH]n2)c2c1C(=O)N[C@H](c1cccnc1)C2 | – |
| 515 | CC1(C)CC(=O)c2c(SCCO)sc(-c3cc[nH]n3)c2C1 | – |
| 7130 | CC1(C)CC(=O)c2c(S(C)(=O)=O)sc(-c3cc[nH]n3)c2C1 | – |
| 459 | O=C1NCCc2c(-c3cc[nH]n3)sc(SC3CCCC3)c21 | – |
| 1890 | CC1(C)CC(=O)c2c(SCCc3ccccc3)sc(-c3cc[nH]n3)c2C1 | – |
| 2790 | CC1(C)CC(=O)c2c(NC3CCCC3)sc(-c3cc[nH]n3)c2C1 | – |
